Measurements from patent US20230190887A1, “TARGETING G3BP AGGREGATION TO PREVENT NEURODEGENERATION” (priority 2019, published 2023).

How the values were obtained:
[1] = test system: wild-type or ALS/FTD-associated mutant (P362L, A381T, E384K) TIA1-GFP in HEK cells; assay: TIA1-GFP aggregates in arsenite-treated HEK cells; assay type: cell-based; conditions: sodium arsenite 0.5 mM 30 minutes, then 10 μM peptide
Description: The inventors tested whether the G3BP1 190-208 peptide would prevent the aggregation of granules formed by TIA1 and TDP43 mutant proteins associated with ALS and FTD. […] Next, we treated HEK cells expressing wild-type and or ALS/FTD-associated mutants (P362L, A381T, or E384K)TIA1, with arsenite a potent inducer of SG aggregation, in addition to either G3BP1 190-208 peptide or control G3BP1 168-189 peptide.
FIG. 5: Cell permeable G3BP1 190-208 peptide decreases TIA1-GFP puncta formed due to expression of disease causing TIA1 mutants. (A) Representative images of HEK cells transfected with GFP-tagged wild-type or ALS/FTD-associated mutants (P362L, A381T, or E384K) TIA1. Arrows show TIA1-GFP puncta. (B) Quantification of the percentage of cells with TIA1-GFP puncta greater than 2 μm^2 area in transfected cells relative TIA1-WT-GFP expressing cells. Consistent with previous studies, ALS/FTD- associated TIA1 mutants show increased number of TIA1-GFP puncta as compared to WT-TIA1. (C) HEK cells expressing TIA1-GFP or ALS/FTD-associated mutants TIA1-P362L, TIA1-A381T, TIA1-E384K were treated with sodium arsenite (0.5 mM) for 30 minutes followed by treatment with either 10 μM 190-208 G3BP1 or 168-189 control peptide. The number of cells containing TIA1-GFP puncta were measured and results are reported relative to non-treated controls. Number of HEK cells with TIA1-GFP granules both for WT and ALS/FTD mutants decreased after treatment with 10 μM 190-208 G3BP1 as compared to the 168-189 control peptide treated cells. (N≥90 over 3 cultures; by two-way ANOVA with Tukey HSD post-hoc). Scale bar: 20 μm.

[2] = test system: NMJs of TDPΔNLS MN-muscle co-cultures; assay: TMRE mitochondrial activity in in vitro NMJs; assay type: cell-based, mouse; conditions: 20 μM peptide in NMJ compartment
Description: Muscles in co-culture were kept in BA medium for 7 days. To aid NMJ formation, media in all compartments was then replaced to poor neurobasal (PNB) medium, which contained only 1% P/S and 1% Glutamax. Doxycycline was applied to TDP-43ΔNLS cultures only at the proximal MN compartment, in a concentration of 0.1 μg/mL, immediately after plating and throughout the entire experimental timeline. For TDPΔNLS recovery experiments (FIGS. 7-8), Doxycline was […] at the proximal MN compartment after 5 DIV, and the cultures were grown until 11 DIV. For G3BP1 peptide treatment (FIG. 21 at i-j, FIG. 24 at f), 20 μM G3BP1 peptides were added exclusively to the distal compartment, starting after 7 DIV.
Mitochondrial membrane potential was assessed with Tetramethylrhodamine Ethyl, Ester (TMRE; Thermo Fisher) dye. Cultures were incubated with 20 nM TMRE for 30 min in CO2 incubator, then washed 3 times with culture medium. Images of TMRE labeled axons in the distal compartment of MFCs were acquired before and after cultures were treated with Anisomycin (40 μM) or NaAsO2 (250 μM), Cycloheximide (150 μM) in ×60 magnification. […] The intensity of TMRE fluorescence in axonal mitochondria was measured using FIJI, and the fraction of change post/pretreatment was calculated for each image field.

YGNKKNNNQNNN-VVEPEPEPEPEPEPEPVSE [G3BP1 190-208 peptide]
penetration into cell bodies and axons (primary MNs): penetration
number of HEK cells with TIA1-GFP granules ([1]; WT and ALS/FTD mutants, relative to non-treated controls): decreased
size of TIA1 aggregates ([1]; WT and mutant TIA1): decrease the size of the TIA1 aggregates
pre-synaptic TMRE signal (mitochondria activity) in NMJs [2]: recovered
